The text below walks through data of DBAASP.

Among the test systems are Proteus mirabilis; Microsporum canis; Staphylococcus aureus; Staphylococcus sciuri; Staphylococcus simulans; Ralstonia solanacearum; Bacillus thuringiensis; Escherichia coli; Pseudomonas tolaasii; Pseudomonas aeruginosa; Pseudomonas aeruginosa 1; Escherichia coli 1; Escherichia coli 214; Escherichia coli C600; Escherichia coli 1057.
What all share (assay): ≥ marks a high value that may be exact or a test limit, other limits are often not marked, values filed in µg/mL are converted to µM
Assay [1] deals with Staphylococcus aureus NCTC 10788.
Assay [2] deals with Microsporum canis MW768151.
The subject of assay [3] is Staphylococcus cohnii MW767053.
Assay [4] has as its system Trichophyton mentagrophytes.
The test system of assay [5] is Staphylococcus pseudintermedius.
Assay [6] concerns Staphylococcus haemolyticus.
The subject of assay [7] is Staphylococcus aureus NCTC 12493.
Assay [8] deals with Staphylococcus aureus ATCC 43300.
Assay [9] has as its system Staphylococcus pseudintermedius MW767056.
Assay [10] deals with Pseudomonas aeruginosa ATCC 27853.
The test system of assay [11] is Escherichia coli NCTC 10418.
For assay [12], the system named is Enterococcus faecalis ATCC 29212.
For assay [13], the system named is Escherichia coli BL21(DE3).

≈ marks a conversion by molar mass, not a printed value. Where “and” joins values, the source holds several entries; their conditions need not be identical. Equal entries are not always repeated.

With `CC[C@H](C)[C@H](NC(=O)CNC(=O)[C@H](CO)NC(=O)[C@H](CC(C)C)NC(=O)[C@H](CC(C)C)NC(=O)CN)C(=O)N[C@@H](CC(C)C)C(=O)NCC(=O)N[C@@H](C)C(=O)NCC(=O)N[C@@H](CCCCN)C(=O)N[C@@H](CCCCN)C(=O)N[C@H](C(=O)N[C@H](C(=O)N[C@@H](Cc1ccccc1)C(N)=O)C(C)C)[C@@H](C)CC` [GLLSGILGAGKKIVF], the MIC was 2 µM (≈ 2.94 µg/mL) in assay [1]; 0.679 µM (≈ 0.999 µg/mL) in assay [2]; not below 43.5 µM against Proteus mirabilis; 1.92 µM (≈ 2.83 µg/mL) with Microsporum canis; not below 86.9 µM in [3]; 1.36 µM (≈ 2 µg/mL) in assay [4]. Moreover, the minimal inhibitory concentration (MIC) in [5] was not below 61.5 µM; in the assay with Staphylococcus aureus, 0.998 µM (≈ 1.47 µg/mL); in assay [6], not below 43.5 µM; in assay [7], 4 µM (≈ 5.89 µg/mL); in the assay on Staphylococcus sciuri, not below 174 µM; in assay [8], 0.998 µM (≈ 1.47 µg/mL). Besides, the MIC is not below 174 µM in assay [9], 2 µM (≈ 2.94 µg/mL) in assay [10], 7.99 µM (≈ 11.8 µg/mL) in assay [11] and 10.9 µM (≈ 16 µg/mL) in the assay on Staphylococcus simulans.

`CC[C@H](C)[C@H](NC(=O)[C@H](CCCCN)NC(=O)CNC(=O)[C@H](CC(C)C)NC(=O)[C@@H](NC(=O)[C@H](CCCCN)NC(=O)[C@H](CCCCN)NC(=O)[C@H](CC(C)C)NC(=O)[C@H](CC(N)=O)NC(=O)[C@@H](N)CC(C)C)[C@@H](C)CC)C(=O)NCC(=O)N[C@H](C(=O)N[C@@H](CCSC)C(=O)N[C@@H](CC(C)C)C(=O)N[C@@H](CO)C(=O)N[C@@H](Cc1cnc[nH]1)C(=O)N[C@@H](CC(C)C)C(=O)N[C@@H](CC(N)=O)C(=O)O)C(C)C` [LNLKKILGKIGVMLSHLN]: the MIC is 1.05 µM (≈ 2.1 µg/mL) against Ralstonia solanacearum, 1.46 µM (≈ 2.9 µg/mL) against Bacillus thuringiensis, 0.402 µM (≈ 0.8 µg/mL) against Escherichia coli and 1.36 µM (≈ 2.7 µg/mL) with Pseudomonas tolaasii.

For `CC[C@H](C)[C@H](NC(=O)[C@@H](NC(=O)[C@@H]1CCCN1C(=O)[C@H](CO)NC(=O)[C@@H]1CSSC[C@H](NC(=O)[C@H](CCCCN)NC(=O)[C@H](CCCCN)NC(=O)CNC(=O)CNC(=O)CNC(=O)CN)C(=O)N[C@@H](CCCCN)C(=O)N[C@@H](CCCCN)C(=O)N[C@@H](CC(C)C)C(=O)N[C@@H](Cc2ccccc2)C(=O)N[C@@H](CCCCN)C(=O)N[C@@H](CCCCN)C(=O)N1)C(C)C)C(=O)N1CCC[C@H]1C(=O)N[C@@H](CC(C)C)C(=O)N[C@@H](CC(C)C)C(=O)N[C@@H](Cc1cnc[nH]1)C(=O)N[C@@H](CC(C)C)C(=O)NCC(=O)O` [GGGGKKCKKLFKKCSPVIPLLHLG], the MIC was 16 µM (≈ 40.1 µg/mL) against Pseudomonas aeruginosa, 1.3 µM (≈ 3.26 µg/mL) against Escherichia coli, 27 µM (≈ 67.7 µg/mL) in the assay with Pseudomonas aeruginosa 1 and 2.7 µM (≈ 6.77 µg/mL) against Escherichia coli 1.

As to `CC(C)C[C@H](NC(=O)[C@H](CCCN=C(N)N)NC(=O)[C@@H](N)CCCN=C(N)N)C(=O)N[C@@H](CCCN=C(N)N)C(=O)N1CCC[C@H]1C(=O)N[C@@H](CCCN=C(N)N)C(=O)N[C@@H](CCCN=C(N)N)C(=O)N1CCC[C@H]1C(=O)N[C@@H](CCCN=C(N)N)C(=O)N[C@@H](CC(C)C)C(=O)N1CCC[C@H]1C(=O)N[C@@H](CCCN=C(N)N)C(=O)N1CCC[C@H]1C(=O)N[C@@H](CCCN=C(N)N)C(=O)N1CCC[C@H]1C(=O)N[C@@H](CCCN=C(N)N)C(=O)N1CCC[C@H]1C(=O)N[C@@H](CCCN=C(N)N)C(=O)N1CCC[C@H]1C(=O)N[C@@H](CCCN=C(N)N)C(=O)N1CCC[C@H]1C(=O)N[C@@H](CCCN=C(N)N)C(=O)O` [RRLRPRRPRLPRPRPRPRPRPR], the MIC was more than 32 µM in assay [12]; not below 64 µM in the assay with Escherichia coli 214; 2 µM and 4 µM against Escherichia coli C600; 8 µM (≈ 23.2 µg/mL) in [13]; 10 µM and 8 µM with Escherichia coli 1057.

As usually defined, the MIC is the lowest concentration found to suppress growth.
